Laboratory results as given in patent US20250051758A1, “FolA Selection Assay to Identify Strains with Increased Soluble Target Protein Expression” (ABSCI CORPORATION, priority 2021, published 2025).

System: E. coli harboring plasmid encoding mCherry-FolA fusion under the control of pBAD promoter

Structure (SMILES)	Inhibition of growth by sulfamethoxazole	Sulfamethoxazole concentration at which sensitivity to trimethoprim is restored [µg/mL]	Resistance of cells to trimethoprim	Synergy of trimethoprim with sulfamethoxazole
Cc1cc(NS(=O)(=O)c2ccc(N)cc2)no1 [sulfamethoxazole]	did not inhibit growth	> 2		
COc1cc(Cc2cnc(N)nc2N)cc(OC)c1OC [trimethoprim]			highly resistant	strong synergy
